Source: the NIST ThermoML archive (doi:10.1016/j.jct.2014.06.012)
Numbers after ± are expanded uncertainties.

Conditions: for molar entropy: 101.33 kPa; for Triple point temperature: Adiabatic calorimetry

O=P([O-])([O-])[O-].[Cs+].[Mn+2] [cesium manganese(II) phosphate]
Conditions	molar entropy [J/K/mol]
5 K, Crystal 3, Vacuum adiabatic calorimetry	0.572 ± 0.042
6 K, Crystal 3, Vacuum adiabatic calorimetry	0.9894 ± 0.067
6.9 K, Crystal 2, Vacuum adiabatic calorimetry	3.334 ± 0.22
6.9 K, Crystal 3, Vacuum adiabatic calorimetry	1.463 ± 0.1
7 K, Crystal 2, Vacuum adiabatic calorimetry	3.434 ± 0.23
8 K, Crystal 2, Vacuum adiabatic calorimetry	4.099 ± 0.27
9 K, Crystal 2, Vacuum adiabatic calorimetry	4.639 ± 0.31
10 K, Crystal 2, Vacuum adiabatic calorimetry	5.163 ± 0.35
15 K, Crystal 2, Vacuum adiabatic calorimetry	8.007 ± 0.53
20 K, Crystal 2, Vacuum adiabatic calorimetry	11.12 ± 0.18
25 K, Crystal 2, Vacuum adiabatic calorimetry	14.62 ± 0.23
30 K, Crystal 2, Vacuum adiabatic calorimetry	18.46 ± 0.29
35 K, Crystal 2, Vacuum adiabatic calorimetry	22.54 ± 0.35
40 K, Crystal 2, Vacuum adiabatic calorimetry	26.78 ± 0.42
45 K, Crystal 2, Vacuum adiabatic calorimetry	31.05 ± 0.39
50 K, Crystal 2, Vacuum adiabatic calorimetry	35.27 ± 0.44
60 K, Crystal 2, Vacuum adiabatic calorimetry	43.62 ± 0.54
70 K, Crystal 2, Vacuum adiabatic calorimetry	51.79 ± 0.64
80 K, Crystal 2, Vacuum adiabatic calorimetry	59.71 ± 0.74
90 K, Crystal 2, Vacuum adiabatic calorimetry	67.35 ± 0.86
100 K, Crystal 2, Vacuum adiabatic calorimetry	74.73 ± 0.94
110 K, Crystal 2, Vacuum adiabatic calorimetry	81.91 ± 1
120 K, Crystal 2, Vacuum adiabatic calorimetry	88.96 ± 1.1
127 K, Crystal 1, Vacuum adiabatic calorimetry	95.03 ± 1.2
127 K, Crystal 2, Vacuum adiabatic calorimetry	93.79 ± 1.2
130 K, Crystal 1, Vacuum adiabatic calorimetry	97.11 ± 1.2
140 K, Crystal 1, Vacuum adiabatic calorimetry	103.68 ± 1.2
150 K, Crystal 1, Vacuum adiabatic calorimetry	110.17 ± 1.3
160 K, Crystal 1, Vacuum adiabatic calorimetry	116.4 ± 1.4
170 K, Crystal 1, Vacuum adiabatic calorimetry	122.56 ± 1.5
180 K, Crystal 1, Vacuum adiabatic calorimetry	128.54 ± 1.6
190 K, Crystal 1, Vacuum adiabatic calorimetry	134.36 ± 1.7
200 K, Crystal 1, Vacuum adiabatic calorimetry	140.02 ± 1.7
210 K, Crystal 1, Vacuum adiabatic calorimetry	145.67 ± 1.7
220 K, Crystal 1, Vacuum adiabatic calorimetry	151.07 ± 1.8
230 K, Crystal 1, Vacuum adiabatic calorimetry	156.4 ± 1.9
240 K, Crystal 1, Vacuum adiabatic calorimetry	161.63 ± 2
250 K, Crystal 1, Vacuum adiabatic calorimetry	166.79 ± 2.1
260 K, Crystal 1, Vacuum adiabatic calorimetry	171.86 ± 2.1
270 K, Crystal 1, Vacuum adiabatic calorimetry	176.77 ± 2.2
280 K, Crystal 1, Vacuum adiabatic calorimetry	181.59 ± 2.2
290 K, Crystal 1, Vacuum adiabatic calorimetry	186.41 ± 2.2
298.15 K, Crystal 1, Vacuum adiabatic calorimetry	190.24 ± 2.3
300 K, Crystal 1, Vacuum adiabatic calorimetry	191.15 ± 2.3
310 K, Crystal 1, Vacuum adiabatic calorimetry	195.81 ± 2.4
320 K, Crystal 1, Vacuum adiabatic calorimetry	200.46 ± 2.4
330 K, Crystal 1, Vacuum adiabatic calorimetry	205.03 ± 2.5
340 K, Crystal 1, Vacuum adiabatic calorimetry	209.61 ± 2.6
350 K, Crystal 1, Small sample (50 mg) DSC	214.51 ± 17
360 K, Crystal 1, Small sample (50 mg) DSC	218.67 ± 17
370 K, Crystal 1, Small sample (50 mg) DSC	222.83 ± 17
380 K, Crystal 1, Small sample (50 mg) DSC	226.99 ± 17
390 K, Crystal 1, Small sample (50 mg) DSC	231.14 ± 18
400 K, Crystal 1, Small sample (50 mg) DSC	235.3 ± 18
410 K, Crystal 1, Small sample (50 mg) DSC	239.46 ± 18
420 K, Crystal 1, Small sample (50 mg) DSC	243.61 ± 19
430 K, Crystal 1, Small sample (50 mg) DSC	247.77 ± 19
440 K, Crystal 1, Small sample (50 mg) DSC	251.93 ± 20
450 K, Crystal 1, Small sample (50 mg) DSC	255.25 ± 20
460 K, Crystal 1, Small sample (50 mg) DSC	259.41 ± 20
470 K, Crystal 1, Small sample (50 mg) DSC	262.74 ± 21
480 K, Crystal 1, Small sample (50 mg) DSC	266.06 ± 21
490 K, Crystal 1, Small sample (50 mg) DSC	270.22 ± 21
500 K, Crystal 1, Small sample (50 mg) DSC	273.55 ± 22
510 K, Crystal 1, Small sample (50 mg) DSC	276.87 ± 22
520 K, Crystal 1, Small sample (50 mg) DSC	280.2 ± 22
530 K, Crystal 1, Small sample (50 mg) DSC	283.52 ± 22
540 K, Crystal 1, Small sample (50 mg) DSC	286.85 ± 22
550 K, Crystal 1, Small sample (50 mg) DSC	290.18 ± 22
560 K, Crystal 1, Small sample (50 mg) DSC	293.5 ± 23
570 K, Crystal 1, Small sample (50 mg) DSC	296.83 ± 23
580 K, Crystal 1, Small sample (50 mg) DSC	300.15 ± 23
590 K, Crystal 1, Small sample (50 mg) DSC	302.65 ± 23
600 K, Crystal 1, Small sample (50 mg) DSC	305.97 ± 24
610 K, Crystal 1, Small sample (50 mg) DSC	309.3 ± 24
620 K, Crystal 1, Small sample (50 mg) DSC	311.79 ± 24
630 K, Crystal 1, Small sample (50 mg) DSC	315.12 ± 25
640 K, Crystal 1, Small sample (50 mg) DSC	317.61 ± 25
650 K, Crystal 1, Small sample (50 mg) DSC	320.94 ± 25

Conditions	Triple point temperature [K]
Crystal 2	127 ± 0.8
Crystal 3	6.9 ± 0.2
